Laboratory results: patent US5559106A, “Heterocyclic compounds, their use and preparation” (Novo Nordisk A/S, priority 1993, dated 1996)

Assays:
[1] = system: quisqualic acid stimulated spreading depression in chicken retina; assay: Spreading Depression (Test 2), quisqualate stimulated, chicken retina; type: cell-based; conditions: Gallus gallus, 0.25 h, quisqualate 1 μg/ml, 26° C., 15 min incubation with test compound, read-out: TEST 2 IC50 (50% maximal inhibition of quisqualic acid stimulated spreading depression)
Protocol: (§1) The pharmacological properties of the compounds of the present invention can be illustrated by determining their capability for displacing radioactively labelled 2-amino-3-hydroxy-5-methyl-4-isoxazolepropionic acid (AMPA) from the AMPA type receptors.
The antagonism is measured by determining the IC50 value which represents the concentration which produces a 50% maximal inhibition of quisqualic acid stimulated spreading depression in chicken retina.
Spreading Depression (Test 2)
Chicks (3-10 days old) were decapitated, the eyes enucleated and sectioned along the equatorial plane. […]
The eyes were initially incubated in normal P.S.S. for 15-30 min. and then transferred to P.S.S. containing quisqualate (1 μg/ml). […] The time taken for an S.D. to start in each eye was measured.
After a further 15 min. of incubation in normal P.S.S. the eyes were transferred to normal P.S.S. containing the test compound and incubated for 15 min. […] The time taken for an S.D. to start in each eye was measured again. The eyes were then placed back in normal P.S.S. and after 15 min. the time taken for S.D. to start was measured again, in order to assess the degree of recovery from any drug effects. […]

AMPA type receptors = assay: 3H-AMPA Binding (Test 1), rat cerebral cortical membrane homogenate; conditions: 3H-AMPA 5 nM, rat cerebral cortical membranes, pH 7.1, 0° C., 30 min; read-out: TEST 1 IC50 (displacement of 50% of the specific binding of 3H-AMPA)
Protocol: as §1
The displacement activity of the compounds may be shown by determining the IC50 value which represents the concentration (μM) which causes a displacement of 50% of the specific binding of ^3 H-AMPA.
^3 H-AMPA Binding (Test 1)
500 μl of thawed rat cerebral cortical membrane homogenate in Tris-HCl (30 mM), CaCl2 (2.5 mM) and KSCN (100 mM) pH 7.1 were incubated at 0° C. for 30 min. with 25 μl ^3 H-AMPA (5 nM final concentration) and the test compound and buffer. Nonspecific binding was determined by incubation with L-glutamic acid (600 μM final concentration). The binding reaction was terminated by adding 5 ml of ice-cold buffer followed by filtration through Whatman GF/C glass fibre filters and 2×5 ml wash with ice-cold buffer. Bound radioactivity was measured by scintillation counting. IC50 was determined by Hill analysis of at least four concentrations of test compound.

IC50 [1] [nM] | IC50 (AMPA type receptors) [nM] | Structure (SMILES)
400 | 260 | O=c1[nH]c2cc(C(F)(F)F)ccc2n2c(CP(=O)(O)O)nnc12 [Example 20, 1-Phosphonomethyl-7-trifluoromethyl[1,2,4]triazolo[4,3-a]quinoxalin-4(5H)-one]
1400 | 480 | O=c1[nH]c2c3ccccc3ccc2n2c(CP(=O)(O)O)nnc12 [Example 30, 3-Phosphonomethylbenzo[f]-1,2,4-triazolo[4,3-a]quinoxalin-12(11H)-one]
